Experimental data published in patent US20250009737A1, “COMPOUNDS AND METHODS FOR THE TARGETED DEGRADATION OF ANDROGEN RECEPTOR” (Arvinas Operations, Inc., priority 2023, published 2025).
Like-named read-outs stand apart in the source and are kept apart here.

Key:
Assay type in all cases: in vitro ADME
[1] = target: T1, CYP2B6 (Homo sapiens, UniProt P20813); assay: Direct and time-dependent CYP2B6 inhibition in pooled human liver microsomes; conditions: pooled HLM, substrate Bupropion 50 μM
T1 construct: evaluated in pooled human liver microsomes (HLM); from tissue; host or cells: pooled human liver microsomes
Description: (§1) The induction potential of Compound A on CYP enzymes was assessed in cryopreserved human hepatocytes from three donors. Following treatment for with Compound A at concentrations of 0.03-30 μM for 48 hours, mRNA levels for CYP1A2, 2B6, 2C8, 2C9, 2C19, and 3A4 were determined by semiquantitative real-time polymerase chain reaction (PCR). Test article concentrations during 24-hour incubation were determined. The potential of Compound A to cause direct and time-dependent inhibition (TDI) of the activities of CYP1A2, 2B6, 2C8, 2C9, 2C19, 2D6, and 3A4 was evaluated in pooled human liver microsomes (HLM) at 0.2-15 μM. Probe substrate concentrations around Km were used for direction inhibition and initial TDI assays. For TDI assay, Compound A was pre-incubated with pooled HLM with and without NADPH for 30 minutes prior to incubation with a single concentration of probe substrate.

[2] = tested on: CYP2C9 mRNA; assay: CYP2C9 mRNA induction in cryopreserved human hepatocytes; conditions: 0.03-30 μM; for CYP2C9 mRNA Fold induction: human hepatocytes, 48 hours
[3] = target: T2, MATE2-K (Homo sapiens, UniProt Q86VL8); assay: MATE2-K uptake transporter inhibition in MDCKII or HEK293 cells; conditions: substrate Metformin (10 μM)
T2 construct: expressed in transfected cells; host or cells: MDCKII or HEK293
Description: (§2) In addition, the inhibition potential against efflux transporters (P-glycoprotein (Pgp) and breast cancer resistance protein (BCRP)) and uptake transporters (MATE1, MATE2-K, OATP1B1, OATP1B3, OAT1, OAT3, and OCT2) was assessed using single transporter over-expressed cell monolayers (MDCK II or HEK293) or inside-out vesicles.
(§3) The potential of Compound A to inhibit Pgp or BCRP was tested for bidirectional transport of the probe substrates in Pgp or BCRP-expressed MDCKII and control monolayers at Compound A concentrations of 0.07-5 μM. Pgp and BCR inhibition were tested in inside-out membrane vesicles prepared from HEK293 overexpressing human Pgp and BCR at concentrations of 0.01-9 μM Compound A in the presence of 4 mM MgATP or MgAMP.

[4] = Metabolite profiling / stability in human plasma
Description: (§4) Metabolite profiling was conducted in incubations of Compound A (2 and 10 μM) with HLM (up to 60 min), human hepatocyte suspension (up to 240 min) and human plasma (up to 360 min). In addition, Compound A (2 μM) was incubated with recombinant human CYP enzymes CYP1A2, CYP2A6, CYP2B6, CYP2C8, CYP2C9, CYP2C19, CYP2D6, CYP2E1, CYP3A4 and CYP3A5.

[5] = target: T3, OAT1 (Homo sapiens, UniProt Q4U2R8); assay: OAT1 uptake transporter inhibition in MDCKII or HEK293 cells; conditions: substrate Estrone-3-sulfate (E3S) (5 μM)
T3 construct: expressed in transfected cells; host or cells: MDCKII or HEK293
Description: as §2, §3

[6] = tested on: CYP2C19 mRNA; assay: CYP2C19 mRNA induction in cryopreserved human hepatocytes; conditions: 48 hours
[7] = target: T4, CYP2C9 (Homo sapiens, UniProt P11712); assay: Direct and time-dependent CYP2C9 inhibition in pooled human liver microsomes; conditions: pooled HLM, substrate Diclofenac 5 μM
T4 construct: evaluated in pooled human liver microsomes (HLM); from tissue; host or cells: pooled human liver microsomes
Description: as §1

[8] = target: CYP3A5 (Homo sapiens, UniProt P20815); assay: Incubation with recombinant human CYP3A5
Description: as §4
The DDI potential of Compound A as a victim via CYP mediated pathways was examined in HLM, human hepatocyte suspensions, and human recombinant CYP enzymes.

[9] = target: T5, BCRP (Homo sapiens, UniProt Q9UNQ0); assay: BCRP inhibition in inside-out membrane vesicles from HEK293; parameters: expressed in transfected cells; host or cells: HEK293 (inside-out membrane vesicles); conditions: substrate Rosuvastatin (1 μM)
T5 sequence (Q9UNQ0 1-655): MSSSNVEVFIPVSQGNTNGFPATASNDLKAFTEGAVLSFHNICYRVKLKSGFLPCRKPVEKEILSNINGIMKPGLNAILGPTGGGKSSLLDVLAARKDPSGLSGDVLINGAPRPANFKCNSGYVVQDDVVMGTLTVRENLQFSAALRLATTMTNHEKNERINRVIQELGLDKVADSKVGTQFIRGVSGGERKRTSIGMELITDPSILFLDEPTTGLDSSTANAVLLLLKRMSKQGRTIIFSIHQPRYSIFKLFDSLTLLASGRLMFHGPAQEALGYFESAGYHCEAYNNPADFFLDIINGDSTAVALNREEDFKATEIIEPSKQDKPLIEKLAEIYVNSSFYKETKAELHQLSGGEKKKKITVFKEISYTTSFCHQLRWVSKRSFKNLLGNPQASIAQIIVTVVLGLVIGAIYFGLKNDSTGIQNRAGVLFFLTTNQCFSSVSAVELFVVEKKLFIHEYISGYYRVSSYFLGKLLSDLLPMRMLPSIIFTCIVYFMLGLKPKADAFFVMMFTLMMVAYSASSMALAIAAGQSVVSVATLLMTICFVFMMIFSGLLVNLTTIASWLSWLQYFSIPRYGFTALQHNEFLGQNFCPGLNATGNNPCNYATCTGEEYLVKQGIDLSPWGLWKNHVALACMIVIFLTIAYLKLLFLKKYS
Description: as §2, §3

[10] = target: T6, OCT2 (Homo sapiens, UniProt O15244); assay: OCT2 uptake transporter inhibition in MDCKII or HEK293 cells; conditions: substrate Metformin (10 μM)
T6 construct: expressed in transfected cells; host or cells: MDCKII or HEK293
Description: as §2, §3

[11] = read-out: IC50, 30 min Pre-incubation
[12] = read-out: IC50, No Pre-incubation

T1 sequence (P20813 whole entry): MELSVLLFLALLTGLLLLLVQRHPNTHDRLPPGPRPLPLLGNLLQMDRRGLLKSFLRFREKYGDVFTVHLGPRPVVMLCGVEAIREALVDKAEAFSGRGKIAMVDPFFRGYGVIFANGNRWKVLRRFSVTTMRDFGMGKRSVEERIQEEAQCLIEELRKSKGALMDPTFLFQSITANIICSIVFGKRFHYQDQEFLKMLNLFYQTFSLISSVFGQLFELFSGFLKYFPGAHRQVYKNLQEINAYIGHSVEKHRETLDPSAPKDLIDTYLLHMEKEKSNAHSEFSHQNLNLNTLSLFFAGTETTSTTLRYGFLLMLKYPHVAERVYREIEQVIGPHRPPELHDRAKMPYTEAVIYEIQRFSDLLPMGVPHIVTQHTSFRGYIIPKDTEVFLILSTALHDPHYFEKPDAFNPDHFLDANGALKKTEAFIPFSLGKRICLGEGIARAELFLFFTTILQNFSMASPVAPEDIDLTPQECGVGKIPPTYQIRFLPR
T4 sequence (P11712 whole entry): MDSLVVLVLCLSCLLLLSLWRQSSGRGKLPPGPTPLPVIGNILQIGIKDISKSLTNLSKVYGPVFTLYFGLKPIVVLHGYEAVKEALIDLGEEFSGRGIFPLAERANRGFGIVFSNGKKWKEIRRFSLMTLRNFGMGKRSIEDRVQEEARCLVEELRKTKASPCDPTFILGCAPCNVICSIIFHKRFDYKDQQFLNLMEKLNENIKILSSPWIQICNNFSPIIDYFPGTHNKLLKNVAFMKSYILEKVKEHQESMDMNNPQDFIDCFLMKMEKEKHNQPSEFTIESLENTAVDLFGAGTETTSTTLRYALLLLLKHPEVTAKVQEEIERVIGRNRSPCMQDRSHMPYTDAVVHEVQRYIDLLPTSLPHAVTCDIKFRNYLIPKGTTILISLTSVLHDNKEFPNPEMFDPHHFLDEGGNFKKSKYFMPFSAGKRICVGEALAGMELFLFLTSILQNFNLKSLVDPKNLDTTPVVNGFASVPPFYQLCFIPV
T6 sequence (O15244 whole entry): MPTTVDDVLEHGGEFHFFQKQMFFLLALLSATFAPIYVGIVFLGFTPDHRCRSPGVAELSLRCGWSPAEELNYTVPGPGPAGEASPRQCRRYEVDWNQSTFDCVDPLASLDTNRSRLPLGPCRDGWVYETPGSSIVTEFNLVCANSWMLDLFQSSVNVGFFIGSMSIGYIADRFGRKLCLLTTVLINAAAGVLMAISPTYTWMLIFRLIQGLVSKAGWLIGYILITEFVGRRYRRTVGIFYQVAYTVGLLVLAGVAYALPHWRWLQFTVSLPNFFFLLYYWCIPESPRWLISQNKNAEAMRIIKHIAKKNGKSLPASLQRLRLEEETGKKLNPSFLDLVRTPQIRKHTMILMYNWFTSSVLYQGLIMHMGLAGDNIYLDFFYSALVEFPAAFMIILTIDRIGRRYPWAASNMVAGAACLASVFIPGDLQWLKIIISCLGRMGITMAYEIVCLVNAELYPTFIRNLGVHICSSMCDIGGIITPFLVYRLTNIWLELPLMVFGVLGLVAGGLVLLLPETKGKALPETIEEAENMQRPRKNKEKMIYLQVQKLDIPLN
T3 sequence (Q4U2R8 whole entry): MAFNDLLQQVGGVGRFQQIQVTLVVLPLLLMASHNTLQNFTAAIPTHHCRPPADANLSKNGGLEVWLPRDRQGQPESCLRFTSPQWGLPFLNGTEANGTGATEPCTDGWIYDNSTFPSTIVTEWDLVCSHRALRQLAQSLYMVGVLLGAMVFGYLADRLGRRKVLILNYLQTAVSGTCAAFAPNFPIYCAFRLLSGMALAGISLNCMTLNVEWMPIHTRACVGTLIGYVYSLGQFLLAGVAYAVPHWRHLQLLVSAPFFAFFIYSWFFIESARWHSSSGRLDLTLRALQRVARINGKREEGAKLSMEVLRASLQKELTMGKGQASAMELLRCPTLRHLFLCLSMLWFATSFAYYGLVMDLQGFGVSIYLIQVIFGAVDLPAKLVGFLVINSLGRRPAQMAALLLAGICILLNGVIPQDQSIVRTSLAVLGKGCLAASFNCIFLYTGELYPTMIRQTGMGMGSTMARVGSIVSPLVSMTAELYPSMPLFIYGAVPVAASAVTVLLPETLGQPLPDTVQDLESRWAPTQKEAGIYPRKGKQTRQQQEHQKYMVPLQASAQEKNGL
T2 sequence (Q86VL8 1-566 isoform Q86VL8-3): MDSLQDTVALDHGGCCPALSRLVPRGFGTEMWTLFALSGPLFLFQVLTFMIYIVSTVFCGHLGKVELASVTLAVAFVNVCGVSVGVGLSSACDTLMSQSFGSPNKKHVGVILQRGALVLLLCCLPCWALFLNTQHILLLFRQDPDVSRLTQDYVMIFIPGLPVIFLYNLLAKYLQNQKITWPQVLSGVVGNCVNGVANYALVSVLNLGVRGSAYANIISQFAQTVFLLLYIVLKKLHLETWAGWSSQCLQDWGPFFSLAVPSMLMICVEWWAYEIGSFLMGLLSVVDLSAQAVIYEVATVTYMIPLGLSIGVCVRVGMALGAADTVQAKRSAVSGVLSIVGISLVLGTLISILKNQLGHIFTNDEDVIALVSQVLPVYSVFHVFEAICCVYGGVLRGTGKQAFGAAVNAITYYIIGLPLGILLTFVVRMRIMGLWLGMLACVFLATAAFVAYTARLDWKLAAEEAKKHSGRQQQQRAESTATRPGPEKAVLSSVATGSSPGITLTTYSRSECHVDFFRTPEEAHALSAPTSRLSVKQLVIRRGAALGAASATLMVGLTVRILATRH
CYP3A5, sequence (P20815 whole entry): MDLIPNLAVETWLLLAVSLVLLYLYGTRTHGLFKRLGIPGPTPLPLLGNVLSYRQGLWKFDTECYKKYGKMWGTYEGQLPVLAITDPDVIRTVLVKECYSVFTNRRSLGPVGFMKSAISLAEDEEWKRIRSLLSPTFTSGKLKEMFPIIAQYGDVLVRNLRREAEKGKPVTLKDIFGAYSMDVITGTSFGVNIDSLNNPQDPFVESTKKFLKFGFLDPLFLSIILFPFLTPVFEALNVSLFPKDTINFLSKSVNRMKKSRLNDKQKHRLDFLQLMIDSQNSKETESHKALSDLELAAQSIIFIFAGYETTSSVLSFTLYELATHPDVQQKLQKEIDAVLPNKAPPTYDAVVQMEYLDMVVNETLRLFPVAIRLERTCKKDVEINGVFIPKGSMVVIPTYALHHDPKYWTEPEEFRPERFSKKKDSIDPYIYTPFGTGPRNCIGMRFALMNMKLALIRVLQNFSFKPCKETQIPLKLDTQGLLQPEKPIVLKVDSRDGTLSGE

SMILES: COc1cc(O[C@H]2C(C)(C)[C@H](NC(=O)c3ccc(N4CCC(CN5CCN(c6ccc(C(=O)N[C@H]7CCC(=O)NC7=O)c(F)c6)CC5)CC4)cc3)C2(C)C)ccc1C#N [Compound A, 4-(4-((1-(4-(((1R,3R)-3-(4-cyano-3-methoxyphenoxy)-2,2,4,4-tetramethylcyclobutyl)carbamoyl)phenyl)piperidin-4-yl)methyl)piperazin-1-yl)-N—((S)-2,6-dioxopiperidin-3-yl)-2-fluorobenzamide]
- IC50 [1, 11]: > 15 µM
- IC50 [1, 12]: > 15 µM
- CYP2C9 mRNA Fold induction ([2]; Donor 1): <2 Fold
- CYP2C9 mRNA Fold induction ([2]; Donor 2): <2 Fold
- CYP2C9 mRNA Fold induction ([2]; Donor 3): <2 Fold
- Induction of CYP2C9 mRNA ([2]; all three donors of human hepatocytes): did not induce
- IC50 [3]: > 3.75 µM
- % Parent at 0 Min, HP at 360 min [4]: 77.0%
- IC50 [5]: > 3.75 µM
- CYP2C19 mRNA Fold induction ([6]; Donor 1, 0.03-30 μM): <2 Fold
- CYP2C19 mRNA Fold induction ([6]; Donor 2, 0.03-30 μM): <2 Fold
- CYP2C19 mRNA Fold induction ([6]; Donor 3, 0.03-30 μM): <2 Fold
- IC50 [7, 11]: > 15 µM
- IC50 [7, 12]: > 15 µM
- Loss of Compound A in CYP3A5 [8]: ≤ 23%
- inhibition at 1 µM ([9]; human, probe Rosuvastatin (1 μM), read-out: Maximal % Inhibition): 95%
- IC50 [9]: 0.21 µM
- IC50 [10]: > 3.75 µM
